Laboratory results: ChEMBL document CHEMBL2010642, “Trichostatin analogues JBIR-109, JBIR-110, and JBIR-111 from the marine sponge-derived Streptomyces sp. RM72” (J Nat Prod, 2012)

Biological target: Histone deacetylase 1 (Homo sapiens, UniProt Q13547)
Test: Inhibition of human HDAC1 after 30 mins by fluorescence assay

Chain of Histone deacetylase 1 (Q13547 whole entry): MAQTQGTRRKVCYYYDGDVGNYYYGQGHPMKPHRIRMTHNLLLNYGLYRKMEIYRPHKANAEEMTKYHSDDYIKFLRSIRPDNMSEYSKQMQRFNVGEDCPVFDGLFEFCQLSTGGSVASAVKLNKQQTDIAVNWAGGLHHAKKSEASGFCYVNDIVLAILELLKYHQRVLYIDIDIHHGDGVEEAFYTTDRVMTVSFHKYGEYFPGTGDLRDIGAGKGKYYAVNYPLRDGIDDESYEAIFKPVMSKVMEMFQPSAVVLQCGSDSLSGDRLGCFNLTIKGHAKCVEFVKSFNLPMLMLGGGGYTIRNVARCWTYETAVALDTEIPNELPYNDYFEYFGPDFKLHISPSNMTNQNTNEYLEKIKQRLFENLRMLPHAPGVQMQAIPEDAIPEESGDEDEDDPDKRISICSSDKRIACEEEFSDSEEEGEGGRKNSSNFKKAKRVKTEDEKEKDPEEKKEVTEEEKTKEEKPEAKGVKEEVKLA

Structure (SMILES) | IC50
CC(/C=C/C(=O)N[C@@H](CCC(=O)O)C(=O)O)=C\[C@@H](C)C(=O)c1ccc(N(C)C)cc1 | 48 µM
CC(/C=C/C(=O)NCCS(=O)(=O)O)=C\[C@@H](C)C(=O)c1ccc(N(C)C)cc1 | 74 µM
CC(/C=C/C(=O)N[C@](C)(CO)C(=O)O)=C\[C@@H](C)C(=O)c1ccc(N(C)C)cc1 | 57 µM
CC(/C=C/C(=O)O)=C\[C@@H](C)C(=O)c1ccc(N(C)C)cc1 [TRICHOSTATIC ACID] | 73 µM
